Positions of bridges follow the written chain, without caps; N, C: chain ends. Residues, ends and D or L forms follow the SMILES beside them.
Each compound was assayed against hNav1.7 (Homo sapiens, UniProt Q15858) (assay: cell-based). Conditions: IonWorks Quattro, Use; read-out: IWQ Use Nav1.7.
hNav1.7, sequence (Q15858 whole entry, looked up): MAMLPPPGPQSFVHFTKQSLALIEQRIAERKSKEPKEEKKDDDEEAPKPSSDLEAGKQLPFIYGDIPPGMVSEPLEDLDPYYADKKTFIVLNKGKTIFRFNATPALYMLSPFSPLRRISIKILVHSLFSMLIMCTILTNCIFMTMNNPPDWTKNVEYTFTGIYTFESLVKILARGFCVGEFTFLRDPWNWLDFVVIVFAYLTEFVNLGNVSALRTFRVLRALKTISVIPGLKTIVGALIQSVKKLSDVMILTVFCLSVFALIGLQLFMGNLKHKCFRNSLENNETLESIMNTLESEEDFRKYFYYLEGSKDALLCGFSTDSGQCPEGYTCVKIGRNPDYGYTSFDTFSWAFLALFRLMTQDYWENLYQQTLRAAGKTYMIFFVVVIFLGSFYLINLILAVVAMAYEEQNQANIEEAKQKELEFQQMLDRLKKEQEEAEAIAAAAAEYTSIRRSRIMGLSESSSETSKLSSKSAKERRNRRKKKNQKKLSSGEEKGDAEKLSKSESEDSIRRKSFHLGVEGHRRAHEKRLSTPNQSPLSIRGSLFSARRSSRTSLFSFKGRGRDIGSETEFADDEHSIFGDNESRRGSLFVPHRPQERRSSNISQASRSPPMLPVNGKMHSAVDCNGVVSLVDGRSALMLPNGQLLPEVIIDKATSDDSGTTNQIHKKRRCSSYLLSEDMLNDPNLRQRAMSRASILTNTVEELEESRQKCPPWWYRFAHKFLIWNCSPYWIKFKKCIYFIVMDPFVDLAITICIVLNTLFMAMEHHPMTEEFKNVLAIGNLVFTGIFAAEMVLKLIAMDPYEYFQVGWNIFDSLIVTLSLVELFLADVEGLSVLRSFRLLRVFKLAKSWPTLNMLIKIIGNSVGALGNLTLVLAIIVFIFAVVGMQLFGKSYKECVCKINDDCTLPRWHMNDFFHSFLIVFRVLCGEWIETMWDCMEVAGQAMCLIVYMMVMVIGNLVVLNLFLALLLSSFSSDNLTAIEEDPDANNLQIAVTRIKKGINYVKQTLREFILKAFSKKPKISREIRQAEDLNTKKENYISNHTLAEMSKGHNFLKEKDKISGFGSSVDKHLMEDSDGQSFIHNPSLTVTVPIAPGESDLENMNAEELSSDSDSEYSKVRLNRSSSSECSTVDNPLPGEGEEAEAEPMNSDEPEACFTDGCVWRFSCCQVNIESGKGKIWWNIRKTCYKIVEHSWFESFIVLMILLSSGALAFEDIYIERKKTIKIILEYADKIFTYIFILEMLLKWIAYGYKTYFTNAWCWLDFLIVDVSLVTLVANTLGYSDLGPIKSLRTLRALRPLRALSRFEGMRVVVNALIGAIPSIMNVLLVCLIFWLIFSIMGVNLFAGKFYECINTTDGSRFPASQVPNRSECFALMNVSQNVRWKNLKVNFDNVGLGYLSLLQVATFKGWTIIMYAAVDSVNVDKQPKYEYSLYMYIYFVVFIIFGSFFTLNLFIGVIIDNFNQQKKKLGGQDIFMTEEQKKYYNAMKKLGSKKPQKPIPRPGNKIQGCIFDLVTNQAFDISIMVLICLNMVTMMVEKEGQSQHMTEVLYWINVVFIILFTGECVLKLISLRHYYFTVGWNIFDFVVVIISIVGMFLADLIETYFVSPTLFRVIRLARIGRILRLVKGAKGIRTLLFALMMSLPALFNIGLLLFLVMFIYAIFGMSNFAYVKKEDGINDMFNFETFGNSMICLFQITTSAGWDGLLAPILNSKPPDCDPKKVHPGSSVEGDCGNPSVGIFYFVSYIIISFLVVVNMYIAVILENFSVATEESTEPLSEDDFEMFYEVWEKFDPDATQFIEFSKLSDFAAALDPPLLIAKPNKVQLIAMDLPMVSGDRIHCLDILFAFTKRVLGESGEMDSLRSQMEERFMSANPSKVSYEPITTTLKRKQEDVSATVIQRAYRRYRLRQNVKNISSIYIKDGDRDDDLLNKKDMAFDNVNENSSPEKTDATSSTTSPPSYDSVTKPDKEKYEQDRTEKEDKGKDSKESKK
Format: cell-based
Work on `CSCC[C@@H]1NC(=O)[C@H](Cc2ccccc2)NC(=O)CNC(=O)[C@H](CC(C)C)NC(=O)[C@@H](NC(=O)[C@@H](N)CC(=O)O)CSSC[C@@H]2NC(=O)[C@@H]3CSSC[C@@H](C(=O)N[C@@H](CCCCN)C(=O)N[C@@H](Cc4ccc(O)cc4)C(=O)N[C@H](C(=O)N[C@@H](Cc4ccccc4)C(N)=O)C(C)C)NC(=O)[C@H](Cc4c[nH]c5ccccc45)NC(=O)[C@H](CCCCN)NC(=O)[C@H](Cc4c[nH]cn4)NC(=O)[C@H]([C@@H](C)O)NC(=O)[C@H](CCCNC(=N)N)NC(=O)[C@H](CO)NC(=O)[C@H](CSSC[C@H](NC(=O)[C@H](CCCCN)NC(=O)[C@H](CCCNC(=N)N)NC1=O)C(=O)N[C@@H](C)C(=O)N1CCC[C@H]1C(=O)N[C@@H](CC(=O)O)C(=O)N[C@@H](CC(N)=O)C(=O)N[C@@H](CC(=O)O)C(=O)N[C@@H](CCCCN)C(=O)N3)NC(=O)[C@H](C(C)C)NC(=O)[C@H](CC(C)C)NC(=O)[C@H](CC(N)=O)NC(=O)[C@@H]1CCCN1C(=O)[C@H](CCCNC(=N)N)NC2=O` [compound 45] (H-DCLGFMRKCAPDNDKCCRPNLVCSRTHKWCKYVF-NH2; disulfide 2-17, 9-23, 16-30) yielded an IC50 of 210 nM. `CC[C@H](C)[C@@H]1NC(=O)[C@@H]2CSSC[C@@H]3NC(=O)[C@H](C(C)C)NC(=O)[C@H](CC(C)C)NC(=O)[C@H](CC(N)=O)NC(=O)[C@@H]4CCCN4C(=O)[C@H](CCCNC(=N)N)NC(=O)[C@H](CSSC[C@H](NC(=O)[C@@H](N)CC(=O)O)C(=O)N[C@@H](CC(C)C)C(=O)NCC(=O)N[C@@H](Cc4ccccc4)C(=O)N[C@@H](CCSC)C(=O)N[C@@H](CCCNC(=N)N)C(=O)N[C@@H](CCCCN)C(=O)N2)NC(=O)[C@H](CSSC[C@@H](C(=O)N[C@@H](CCCCN)C(=O)N[C@@H](Cc2ccc(O)cc2)C(=O)N[C@H](C(=O)N[C@@H](Cc2ccccc2)C(N)=O)C(C)C)NC(=O)[C@H](Cc2c[nH]c4ccccc24)NC(=O)[C@H](CCCCN)NC(=O)[C@H](Cc2c[nH]cn2)NC(=O)[C@H]([C@@H](C)O)NC(=O)[C@H](CCCNC(=N)N)NC(=O)[C@H](CO)NC3=O)NC(=O)[C@H](CCCCN)NC(=O)[C@H](CC(=O)O)NC(=O)[C@H](CCCCN)NC(=O)[C@H](CC(=O)O)NC(=O)[C@@H]2CCCN2C1=O` [compound 48] (H-DCLGFMRKCIPDKDKCCRPNLVCSRTHKWCKYVF-NH2; disulfide 2-17, 9-23, 16-30) was tested, and the IC50 was 210 nM. For `CC[C@H](C)[C@@H]1NC(=O)[C@@H]2CSSC[C@@H]3NC(=O)[C@H](C(C)C)NC(=O)[C@H](CC(C)C)NC(=O)[C@H](CC(N)=O)NC(=O)[C@@H]4CCCN4C(=O)[C@H](CCCNC(=N)N)NC(=O)[C@H](CSSC[C@H](NC(=O)[C@@H](N)CC(=O)O)C(=O)N[C@@H](CC(C)C)C(=O)NCC(=O)N[C@@H](Cc4ccccc4)C(=O)N[C@@H](CCSC)C(=O)N[C@@H](CCCNC(=N)N)C(=O)N[C@@H](CCCCN)C(=O)N2)NC(=O)[C@H](CSSC[C@@H](C(=O)N[C@@H](CCCCN)C(=O)N[C@@H](Cc2ccc(O)cc2)C(=O)N[C@H](C(=O)N[C@@H](Cc2ccccc2)C(N)=O)C(C)C)NC(=O)[C@H](Cc2c[nH]c4ccccc24)NC(=O)[C@H](CCCCN)NC(=O)[C@H](Cc2c[nH]cn2)NC(=O)[C@H]([C@@H](C)O)NC(=O)[C@H](CCCCN)NC(=O)[C@H](CO)NC3=O)NC(=O)[C@H](CCCCN)NC(=O)[C@H](CC(=O)O)NC(=O)[C@H](CC(N)=O)NC(=O)[C@H](CC(=O)O)NC(=O)[C@@H]2CCCN2C1=O` [compound 53] (H-DCLGFMRKCIPDNDKCCRPNLVCSKTHKWCKYVF-NH2; disulfide 2-17, 9-23, 16-30), the IC50 was 380 nM.

Same assay, conditions: read-out: IWQ Use Nav1.7
With `CC[C@H](C)[C@@H]1NC(=O)[C@@H]2CSSC[C@@H]3NC(=O)[C@H](C(C)C)NC(=O)[C@H](CC(C)C)NC(=O)[C@H](CC(N)=O)NC(=O)[C@@H]4CCCN4C(=O)[C@H](CCCNC(=N)N)NC(=O)[C@H](CSSC[C@H](NC(=O)[C@@H](N)CC(=O)O)C(=O)N[C@@H](CC(C)C)C(=O)NCC(=O)N[C@@H](Cc4ccccc4)C(=O)N[C@@H](CCSC)C(=O)N[C@@H](CCCNC(=N)N)C(=O)N[C@@H](CCCCN)C(=O)N2)NC(=O)[C@H](CSSC[C@@H](C(=O)N[C@@H](CCCCN)C(=O)N[C@@H](Cc2ccc(O)cc2)C(=O)N[C@H](C(=O)N[C@@H](Cc2ccccc2)C(N)=O)C(C)C)NC(=O)[C@H](Cc2c[nH]c4ccccc24)NC(=O)[C@H](CCCCN)NC(=O)[C@H](Cc2c[nH]cn2)NC(=O)[C@H]([C@@H](C)O)NC(=O)[C@H](CCCNC(=N)N)NC(=O)[C@H](CO)NC3=O)NC(=O)[C@H](CCCCN)NC(=O)[C@H](CC(=O)O)NC(=O)[C@H](CC(N)=O)NC(=O)[C@H](CCCCN)NC(=O)[C@@H]2CCCN2C1=O` [compound 42] (H-DCLGFMRKCIPKNDKCCRPNLVCSRTHKWCKYVF-NH2; disulfide 2-17, 9-23, 16-30) the IC50 was 120 nM. For `CC[C@H](C)[C@@H]1NC(=O)[C@@H]2CSSC[C@@H]3NC(=O)[C@H](C(C)C)NC(=O)[C@H](CC(C)C)NC(=O)[C@H](CC(N)=O)NC(=O)[C@H](CCCCN)NC(=O)[C@H](CCCNC(=N)N)NC(=O)[C@H](CSSC[C@H](NC(=O)[C@@H](N)CC(=O)O)C(=O)N[C@@H](CC(C)C)C(=O)NCC(=O)N[C@@H](Cc4ccccc4)C(=O)N[C@@H](CCSC)C(=O)N[C@@H](CCCNC(=N)N)C(=O)N[C@@H](CCCCN)C(=O)N2)NC(=O)[C@H](CSSC[C@@H](C(=O)N[C@@H](CCCCN)C(=O)N[C@@H](Cc2ccc(O)cc2)C(=O)N[C@H](C(=O)N[C@@H](Cc2ccccc2)C(N)=O)C(C)C)NC(=O)[C@H](Cc2c[nH]c4ccccc24)NC(=O)[C@H](CCCCN)NC(=O)[C@H](Cc2c[nH]cn2)NC(=O)[C@H]([C@@H](C)O)NC(=O)[C@H](CCCNC(=N)N)NC(=O)[C@H](CO)NC3=O)NC(=O)[C@H](CCCCN)NC(=O)[C@H](CC(=O)O)NC(=O)[C@H](CC(N)=O)NC(=O)[C@H](CC(=O)O)NC(=O)[C@@H]2CCCN2C1=O` [compound 50] (H-DCLGFMRKCIPDNDKCCRKNLVCSRTHKWCKYVF-NH2; disulfide 2-17, 9-23, 16-30), the IC50 was 120 nM. `CC[C@H](C)[C@@H]1NC(=O)[C@@H]2CSSC[C@@H]3NC(=O)[C@H](C(C)C)NC(=O)[C@H](CC(C)C)NC(=O)[C@H](CC(N)=O)NC(=O)[C@@H]4CCCN4C(=O)[C@H](CCCNC(=N)N)NC(=O)[C@H](CSSC[C@H](NC(=O)[C@@H](N)CC(=O)O)C(=O)N[C@@H](CC(C)C)C(=O)NCC(=O)N[C@@H](Cc4ccccc4)C(=O)N[C@@H](CCSC)C(=O)N[C@@H](CCCNC(=N)N)C(=O)N[C@@H](CCCCN)C(=O)N2)NC(=O)[C@H](CSSC[C@@H](C(=O)N[C@@H](CCCCN)C(=O)N[C@@H](Cc2ccc(O)cc2)C(=O)N[C@H](C(=O)N[C@@H](Cc2ccccc2)C(N)=O)C(C)C)NC(=O)[C@H](Cc2c[nH]c4ccccc24)NC(=O)[C@H](CCCCN)NC(=O)[C@H](Cc2c[nH]cn2)NC(=O)[C@H]([C@@H](C)O)NC(=O)[C@H](CCCNC(=N)N)NC(=O)[C@H](CO)NC3=O)NC(=O)[C@H](CCCCN)NC(=O)[C@H](CC(=O)O)NC(=O)[C@H](CC(N)=O)NC(=O)[C@H](CCCNC(=N)N)NC(=O)[C@@H]2CCCN2C1=O` [compound 67] (H-DCLGFMRKCIPRNDKCCRPNLVCSRTHKWCKYVF-NH2; disulfide 2-17, 9-23, 16-30) gave an IC50 of 110 nM.

Source: US9340590B2 (priority 2011, dated 2016)
